Consider one molecule from publication PMC2360547 (British Journal of Cancer, 2006).

Data set [1] is described as follows: Plasma concentrations by HPLC with fluorescence detection. It is filed as in vivo, human. The settings on record: for concentration at 28 day: human, plasma, oral. As for the experimental part:
(§1) Therefore, the tumour tissue was frozen and cut into as small as possible pieces with a scalpel. The pieces were weighed, added to 1 ml of water, vortexed and thereafter treated like plasma. The assay for plasma samples was validated with acceptable calibration curves, within-study variability and total recovery. […] Due to limited availability of tumour tissue, the within-study validation for tumour assay was not performed.

The nature of data set [2]: Tumour tissue concentrations by HPLC with fluorescence detection. The format is in vivo, human. The settings on record: for Kp at 28 day / concentration at 28 day: human, oral, 10 subjects; for Kp at 28 day: tumour tissue / plasma, 75 mg three times a day, tumour tissue to plasma; for concentration at 28 day: 75 mg tid. The method, then: as §1

Several values for one entry are separate records, joined by “and”; a condition that tells them apart may be missing. Equal entries are not always repeated. Where two headings read alike, the source gives them in different places.

Consider `CO[C@@H]1[C@H](N(C)C(=O)c2ccccc2)C[C@H]2O[C@]1(C)n1c3ccccc3c3c4c(c5c6ccccc6n2c5c31)C(=O)NC4` [Midostaurin, N-benzoyl-staurosporine], for which the concentration at 28 day in data set [1] (75 mg three times a day, calculated for median plasma concentration of 2342 nM and 99% protein binding, read-out: Free plasma concentration) is 0.0234 µM; in data set [1] (75 mg tid, 12 subjects, about 1 month of 75 mg tid, read-out: Plasma concentrations, maximum) it was 4.65 µM; in data set [1] (75 mg tid, 12 subjects, about 1 month of 75 mg tid, read-out: Plasma concentrations, mean) it was 2.45 µM; in data set [1] (75 mg tid, 12 subjects, about 1 month of 75 mg tid, read-out: Plasma concentrations, median), 2.34 µM; in data set [1] (75 mg tid, 12 subjects, about 1 month of 75 mg tid, read-out: Plasma concentrations, minimum), 0.771 µM; in data set [1] (75 mg tid, 12 subjects, about 1 month of 75 mg tid, read-out: Plasma trough concentrations, range), 0.771 to 4.65 µM. Besides, the concentration at 28 day in data set [2] (tumour tissue, tumour tissue, about 1 month of 75 mg tid, read-out: Tissue concentrations, maximum) stood at 4.25 µM; in data set [2] (tumour tissue, tumour tissue, about 1 month of 75 mg tid, read-out: Tissue concentrations, mean), 1.3 µM; in data set [2] (tumour tissue, tumour tissue, about 1 month of 75 mg tid, read-out: Tissue concentrations, median), 0.593 µM; in data set [2] (tumour tissue, tumour tissue, about 1 month of 75 mg tid, read-out: Tissue concentrations, minimum), 0.058 µM. The Plasma concentrations in data set [1] (individual subjects, sampling day 27-30, midostaurin 75 mg tid) was 2.614 µM and 1.639 µM and 0.771 µM and 2.901 µM and 2.226 µM and 2.387 µM and 4.649 µM and 1.765 µM and 1.437 µM and 2.297 µM and 3.549 µM and 3.212 µM. The Kp at 28 day was 1.86 in data set [2] (read-out: Tissue/plasma ratios, maximum); 0.56 in data set [2] (read-out: Tissue/plasma ratios, mean); 0.29 in data set [2] (read-out: Tissue/plasma ratios, median); 0.02 in data set [2] (read-out: Tissue/plasma ratios, minimum). Also, the Tissue concentrations in data set [2] (tumour tissue, individual subjects, about 1 month of 75 mg tid) was 58 nM and 607 nM and 266 nM and 579 nM and 4142 nM and 550 nM and 1528 nM and 358 nM and 698 nM and 4246 nM.
